Bounds are passed on as bounds.

Our source for the melting point values is a melting point compilation (Tetko et al.; mined from patent text by program, amines drawn as free bases though some values may be those of a salt).

The melting point is the temperature, or range, at which the solid turns liquid. With `CSc1ccc(-c2c(Br)cnn2-c2ccc(F)cc2)cc1`, the melting point was 85 to 87 °C.

Take `CC1Cc2ccc(C#N)cc2C1=O` (stereo not drawn): the melting point was determined as 95 °C. `COc1cccc(Nc2ccnc(Nc3cc(NC(C)=O)c(OC)c(OC)c3)n2)c1` gave a melting point of 158 to 160 °C. The compound `CNCc1cc(OC)c(-c2ccc(C[C@H](NC(=O)c3c(Cl)cccc3Cl)C(=O)O)cc2)c(OC)c1` registered a melting point of 274 °C. Regarding `Cc1nc(C)c(-c2ccnc(Nc3ccc(N4CCCC4)cc3)n2)s1`, the melting point was 192 to 193 °C.

`COc1c(C2CCN(CCCCNC(=O)c3oc(-c4ccc(C#N)cc4)nc3CO)CC2)ccc2c1CCCC2` registered a melting point of 160 to 162 °C.

Regarding `O=C(c1cccc(Oc2ccccc2)c1)c1cccc(Br)n1`, the melting point is 65 to 66 °C.

`O=C(CNc1ccc(F)cc1)Nc1ccccc1C(=O)O` returned a melting point of 217 to 219 °C. As for `Cc1cc(O)nn1C(=O)Nc1ccccc1`, the melting point is 232 to 234 °C. `CCOC(=O)C(C)(NC(C)=O)C(=O)OCC` showed a melting point of 89 to 90 °C. Compound `CC1(C)Oc2ccc(C(=O)CO)cc2[C@H](NC(=O)c2cc(F)cc(F)c2)[C@H]1O` registered a melting point of 179 °C. `O=S(=O)(c1ccccc1)n1ccc2cc3c(cc21)OCO3` gave a melting point of 142 to 145 °C. With `CN=C(NC#N)C1=CC(CF)(CF)Oc2ccc([N+](=O)[O-])cc21`, the melting point is 259 to 261 °C. Consider `COc1ccc(CC(=O)NC(NC(Cc2cccnc2C)=NC#N)C(C)(C)C)cc1OC` (stereo not drawn), for which the melting point lay in the range of 164 to 165 °C. In turn, `Clc1ccc(N=c2ssnc2Cl)cc1Cl` gave a melting point of 89 to 90 °C. For the compound `Cc1oc(-c2ccccc2)nc1COc1ccc(COc2cccnc2CO)cc1`, the melting point lay in the range of 118 to 119 °C. To `O=CC(=O)c1ccccc1` belongs 120 to 122 °C; to `O=c1cc(-c2ccccc2)oc2cc(OCC3CO3)ccc12` (stereo not drawn), 123 to 130 °C. For the compound `O=C(Nc1ccc(N2CCCC2)nc1)c1cc2nc(C(F)(F)F)ccc2n1Cc1cccc(F)c1`, the melting point lay within 219 to 220 °C. For the compound `Cn1c(C2CC2)nc2c(O)c(C(=O)[C@H](O)[C@@H](O)c3ccccc3)ccc21`, the melting point stood at 156 °C. For the compound `COCC1CN(c2ccc(C3CCCCC3)c(O)c2)C(=O)O1` (racemic), the melting point is 207 to 208 °C. On to `CC(C)(C)Oc1ccc(I)cc1`, for which the melting point lay within 40 to 41.5 °C. In the case of `COc1ccc(-c2cc(CN3CCN(CCO)CC3)c(=O)n(CC=Cc3ccc(Cl)cc3)n2)cc1F`, the melting point lay in the range of 133 to 135 °C. Regarding `COc1ccccc1N(CCN1CCC(C(=O)c2ccc(F)cc2)CC1)C(=O)c1ccc(C#N)cc1`, the melting point lay in the range of 155 to 158 °C. For `NC(=O)c1nc(-c2cccc(O)c2)nc2c1[nH]c(=O)n2-c1ccccc1Cl`, the melting point is 360 to 364 °C.

Take `O=C(Nc1cccnn1)N1CCN(c2nccc(-c3c(F)cccc3F)n2)CC1`: the melting point is 228 to 229 °C. To `Cc1cccc2c1nc(COc1ccc(Cl)cc1)n2CCC(C)CC1NCCc2ccccc21` (racemic) belongs 114 to 116 °C; to `O=C(/C=C/c1cccc(NC(=O)/C=C/c2ccc3c(c2)OCO3)c1)NO`, 128 °C; to `N#CN1CCN(c2nn(S(=O)(=O)c3ccccc3)c3ccccc23)CC1`, 178 to 180 °C. Compound `CCOc1cc2c(c3c1OC(C)(C)C3)C(c1cccc(N3C(=O)CNC3=O)c1)=NC(C)(C)C2` gave a melting point of 202 to 204 °C.

Take `CCCCCC(C)C(C)c1cc(O)c2c(c1)OC(C)(C)C1=C2CCC1` (stereo not drawn): the melting point was 154 to 156 °C.

For `Cn1c(-c2ccccc2)c(C2=CCC(C(=O)O)(C(=O)O)CC2)c2ccccc21`, the melting point fell in the range of 210 to 211 °C. The figure for `CCOC(=O)c1cc(-c2ccc(OC)cc2)n(-c2ccc(OC)cc2)n1` is 97 to 98 °C; for `NS(=O)(=O)NC[C@H]1COc2ccc(Cl)cc2O1` it is 118 to 119 °C; for `CC1(C)CC(=O)C(C)(C)c2cc(/C=C/c3ccc(C(=O)O)cc3)c(Cn3cccn3)cc21` it is 265 to 266 °C.

`CS(=O)(=O)Nc1cc2occ([N+](=O)[O-])c(=O)c2cc1Oc1ccccc1` gave a melting point of 225 to 227 °C.

`C=C(Nc1nc(-c2ccccc2)c(-c2nc3ccccc3c(=O)n2-c2ccc(OC)cc2)s1)c1ccco1`: the melting point is 262 to 264 °C. `COc1cc(Nc2c(C#N)cnc3cc4ccccc4cc23)c(C)cc1Cl` yielded a melting point of 195 to 197 °C. Compound `COc1ccc(CSc2ccc(OCC(=O)O)c3c2CCC3)cc1OCc1ccc(C(F)(F)F)cc1` showed a melting point of 150 to 151 °C. Compound `CNc1c2oc3ccccc3c2nn1C` registered a melting point of 154 to 156 °C.

On to `CC(C(=O)O)c1ccc(N)cc1` (stereo not drawn), for which the melting point was in the range of 125 to 129 °C. To `CN(C)C(=O)c1cccn1N1C(=O)c2ccccc2C1=O` belongs 153 to 155 °C; to `COc1ccccc1CN[C@H]1CCCN(Cc2ccccc2)[C@H]1c1ccccc1` (relative stereo), 68 to 70 °C. To `O=C(/C=C/c1ccc(O)cc1Cl)CC(=O)/C=C/c1cc(O)ccc1[N+](=O)[O-]` belongs 132 to 136 °C; to `CCC(O)(CC)c1ccc(-c2ccc(OCc3ccc(CO)c(CO)c3)cc2)c(C)c1`, 97 °C.

In the case of `Cc1ccc(/C=C/c2nc(COc3ccc(CCCCn4ccnn4)cc3)co2)cc1`, the melting point fell in the range of 154 to 155 °C. The figure for `O=P(O)(O)C(O)(Cc1cccc(Cl)c1)P(=O)(O)O` is 198 to 200 °C; for `CC1(O)OC(=O)C(c2c(F)cc(F)cc2F)=C1c1cccs1` (stereo not drawn) it is 134 to 136 °C; for `N=C(NC1CC1)N[N+](=O)[O-]` it is 127 to 130 °C. For the compound `COC(=O)[C@@H]1[C@H](NC(=O)Cc2ccccc2)C(=O)N1Cc1ccc(OC)cc1OC` (relative stereo), the melting point is 124 to 126 °C. For the compound `CS(=O)c1ccc(-c2c(-c3ccncc3)nc3n2CCC3)cc1` (stereo not drawn), the melting point lay within 180 to 182 °C. To `CC(c1ccc(-c2ccccc2)c(F)c1)c1csc(NS(C)(=O)=O)n1` (stereo not drawn) belongs 128 to 129 °C; to `CCOC(=O)Cc1ccc(NC(=O)C(CC(C)C)NS(=O)(=O)c2ccc(Cl)cc2)cc1` (racemic), 117 to 120 °C. To `COC(=O)CN(CC(=O)OC)c1cccc([N+](=O)[O-])c1` belongs 54 to 57 °C; to `O=C(CN1CCNCC1)Nc1ccccc1`, 71 to 72 °C; to `CC(C)S(=O)(=O)c1cc(OCCc2ccccn2)c2[nH]nc(Nc3cnccn3)c2c1`, 195 to 196 °C. The figure for `COCCc1nc2ccccn2c(=O)c1-c1ccc(Cl)cc1` is 116 to 118 °C; for `COC(=O)C1CSC(c2ccc(Oc3ccc(C)cc3O)cc2)N1` (stereo not drawn) it is 134 to 135 °C.

Compound `O=C(NC12CC3CC(CC(C3)C1)C2)c1cc(O)c(O)cc1Cl` had a melting point of 225 to 230 °C.

Consider `CCC1(O)CC(=O)OCc2c1cc1n(c2=O)Cc2cc3c4c(c(F)cc3nc2-1)OCN(Cc1ccccc1)C4` (stereo not drawn), for which the melting point is over 250 °C. To `CC1CN(C)CC(NC(=O)c2n[nH]c3ccccc23)CN1Cc1ccccc1` (stereo not drawn) belongs 164 to 165 °C. Compound `CCOC(=O)c1cn(-c2ccc(F)cc2)c2cc(-c3ccncc3)ccc2c1=O` showed a melting point of 252 to 253 °C. Compound `Clc1ccc(OCC2CCCC(OC(CBr)c3ccc(Cl)cc3Cl)O2)c(Cl)c1` (stereo not drawn) registered a melting point of 104 to 105 °C. In turn, `CCCC(=O)NC(=O)C(c1ccccc1)c1ccccc1` returned a melting point of 205 °C. Regarding `N=C(N)SCc1cccc(CSC(=N)N)c1`, the melting point fell in the range of 216 to 218 °C. `Fc1ccc2c(CCCC3CNCc4c3[nH]c3cnc5cc(Cl)ccc5c43)noc2c1` (stereo not drawn) gave a melting point of 221 to 222 °C. The compound `Cc1ccc(-c2nc3ccc(OCCN4CCCCC4)cc3n2-c2ccccc2)cc1C` came in with a melting point of 111 °C. The figure for `CSc1ccc(NC(=O)C2(C)CC2)cc1C(F)(F)F` is 97 to 98 °C; for `CC(=O)c1nc2ccc(Oc3ccccc3)cc2cc1O` it is 131 to 133 °C; for `COc1ccc2nc3n(c(=O)c2c1OC)CS(=O)(=O)N3` it is over 300 °C. In turn, `NC(=NCC(F)(F)F)Nc1ccnc(SCCCC(=O)O)n1` returned a melting point of 234 to 236 °C. Compound `COc1cc2ncnc(N3CCN(C(=O)NCc4ccc(F)cc4)CC3)c2cc1OC` had a melting point of 200 to 201 °C. The figure for `CCOC(=O)c1[nH]c2c(c1O)CCCC2` is 94 to 95 °C; for `c1cnn(Cc2ccc3c(c2)Cc2c(-c4ccsc4)n[nH]c2-3)n1` it is 238 to 241 °C; for `CN(C)C(=O)c1nc(-c2cccnc2)nc2c1c1ccc(Cl)cc1n2C` it is 283 to 284 °C.

In the case of `CCCCCCCNc1cccc2c1CN(c1cc(C)cc(C)c1)C2=O`, the melting point lay within 68 to 69 °C. `CN1CC(c2ccc(Cl)cc2)=NNC1=O`: the melting point lay in the range of 195 to 197 °C. For the compound `CCOC(=O)Cn1c(=O)c2cc(OC)ccc2n(Cc2ccc(Cl)cc2Cl)c1=O`, the melting point was in the range of 167 to 168 °C. The figure for `CC(=O)NC(=CBr)C(=O)OC(C)(C)C` is 106 to 107 °C. In the case of `Cc1c(N)cc([N+](=O)[O-])c(N)c1C`, the melting point came out at 159 °C. To `Cc1nc(-c2ccccc2Cl)n2c1nnc1ccc(N3CCCCC3)cc12` belongs 207 to 210 °C; to `Fc1ccc(CC2C=CC(OCc3ccccc3)=C3N=C4CCCCC4=C32)cc1` (stereo not drawn), 134 to 135 °C; to `CCOC(=O)C1=C(C)NC(COC(C)=O)=C(C(=O)OCC)C1c1ccccc1[N+](=O)[O-]` (stereo not drawn), 89 to 90 °C.

`CC(C)n1nc(-c2nc(C3=CCN(C)CC3)c(N)nc2-c2ccccc2)ccc1=O` returned a melting point of 209 to 211 °C. `COc1cc([N+](=O)[O-])c2nccc(C)c2c1OCCCc1ccccc1` showed a melting point of 100 to 102 °C. Turning to `Cc1cccc(C2CCN(CCCCCC(=O)N3Cc4ccccc4C3)CC2)c1C#N`, the melting point amounted to 132 °C.

`Cc1ccc(NC(=O)c2cccc(CN3C(=O)C4(COc5cc6c(cc54)CCO6)c4ccccc43)c2)c(C)c1` (stereo not drawn) returned a melting point of 234 to 235 °C. Compound `CC1(C)C2CC[C@@]1(C)C(=O)C(C(=O)Nc1ccc(Cl)cc1)C2=O` (stereo partly drawn) displayed a melting point of 88 to 90 °C.
